Measured values taken from patent US8486464B2, “Herbal composition for angina pectoris, method to prepare same and uses thereof” (Tasly Pharmaceutical Group Co. Ltd., priority 2000, dated 2013).

Key:
CK, LDH = test: Dog blood serum CK and LDH; format: in vivo; details: dogs, Dan Shen Pill 2 g/kg
Experimental: (§1) 1.1 Experimental Groups. (1) Blank control group, normal saline 3 ml/kg; (2) DSP group, 2 g natural drug/kg; (3) positive control group, Ditiazem, 5 mg/kg. All the above samples are diluted with normal saline to the same volume of 3 ml/kg and were given to the patient through the duodenum.
(§2) 1.2 Experimental Method. The dogs are anesthetized with pentobarbital sodium. Chests were opened and coronary arterioles and the central part of the dorsal lower branch separated and tied to create an acute myocardial ischemia model. ECGs were recorded and the level of myocardial ischemia (increased section ST, ST) and area of myocardial ischemia (the total increased decimal places in section ST) were calculated. The oxygen content in the coronary artery was recorded. Blood serum creatine kinase (CK), lactate dehydrogenase (LDH), ET, TXB2 and 6-Keto-PGF1 were measured. The oxygen content of the aorta and coronary vein, and blood flow volume in the coronary arteries were measured to calculate myocardial oxygen consumption. Blood oxygen content in the coronary vein was measured to calculate myocardial oxygen content (myocardial oxygen content=(blood oxygen content in arteries-blood oxygen content in coronary veins)×blood flow volume in coronary artery/100).

ET, TXB2, 6-Keto-PGF1α = test: Dog plasma ET, TXB2, 6-Keto-PGF1α; format: in vivo; details: dogs, Dan Shen Pill 2 g/kg, Diltiazen 5 mg/kg
Experimental: as §1, §2

dizziness = test: Dizziness, DSP vs lidocaine; format: in vivo, human
Source text: 61 patients were divided into two groups at random. 29 patients were in the Treatment group, including 22 patients with insufficient blood supply to the cerebral artery, 7 patients with Meniere Disease, 5 patients with high blood pressure, and 2 patients with coronary heart disease. 32 patients were in the control group, including 22 patients with insufficient blood supply to the cerebral artery, 10 patients with Meniere Disease, 7 patients with high blood pressure, and 4 patients with coronary heart disease. 10 tablets of DSP were given to the Treatment group, 3-5 times/day for 3-7 days. 50 mg of lidocaine was injected into the Control group, once a day for 3-7 days.
Treatment method: (1) Obvious Efficacy: Dizziness and other companion symptoms disappeared, and there was no re-occurrence for 12 hrs after observation. (2) Efficacy: The level of dizziness and other symptoms disappeared. (3) Failure: No improvement.

[1] = Diltiazen 5 mg/kg, 30 min after dosage
[2] = Diltiazen 5 mg/kg, 60 min after dosage
[3] = Diltiazen 5 mg/kg, 90 min after dosage
[4] = Diltiazen 5 mg/kg, 120 min after dosage
[5] = Diltiazen 5 mg/kg, 180 min after dosage
[6] = Diltiazen 5 mg/kg, after hypoxia before dosage
[7] = Ditiazen 5 mg/kg, 30 min after dosage
[8] = Ditiazen 5 mg/kg, 60 min after dosage
[9] = Ditiazen 5 mg/kg, 90 min after dosage
[10] = Ditiazen 5 mg/kg, 120 min after dosage
[11] = Ditiazen 5 mg/kg, 180 min after dosage
[12] = Ditiazen 5 mg/kg, after hypoxia before dosage
[13] = Insufficient blood supply to the brain

With `COc1ccc([C@@H]2Sc3ccccc3N(CCN(C)C)C(=O)[C@@H]2OC(C)=O)cc1` [Diltiazen] the “LDH, changing in percentage (before dosage = 100%)” value (CK, LDH; [1]) was 101.14 ± 17.90 %, the “blood serum LDH” value (CK, LDH; [1]) was 143.40 ± 28.64 U/L and the “LDH, changing in percentage (before dosage = 100%)” value (CK, LDH; [2]) was 92.58 ± 15.17 %. For the same molecule, the “blood serum LDH” value (CK, LDH; [2]) was 134.40 ± 46.48 U/L, the “LDH, changing in percentage (before dosage = 100%)” value (CK, LDH; [3]) was 93.31 ± 19.02 % and the “blood serum LDH” value (CK, LDH; [3]) was 153.00 ± 70.80 U/L. The “LDH, changing in percentage (before dosage = 100%)” value (CK, LDH; [4]) was 121.32 ± 22.12%, the “blood serum LDH” value (CK, LDH; [4]) was 194.60 ± 76.72 U/L and the “LDH, changing in percentage (before dosage = 100%)” value (CK, LDH; [5]) was 117.24 ± 26.69 %. For the same molecule, the “blood serum LDH” value (CK, LDH; [5]) was 164.80 ± 49.36 U/L, the “LDH, changing in percentage” value (CK, LDH; [6]) was 101.14 ± 17.90 % and the “blood serum LDH” value (CK, LDH; [6]) was 143.40 ± 28.64 U/L. The “blood serum LDH” value (CK, LDH; Diltiazen 5 mg/kg, before hypoxia (normal)) was 106.40 ± 19.12 U/L, the 6-Keto-PGF1α/TXB2 (ET, TXB2, 6-Keto-PGF1α; 30 min after dosage) was 1.507 ± 0.505 and the “6-Keto-PGF1α/TXB2, changing in percentage (before dosage = 100%)” value (ET, TXB2, 6-Keto-PGF1α; 30 min after dosage) was 148.42 ± 17.35 %. The 6-Keto-PGF1α/TXB2 (ET, TXB2, 6-Keto-PGF1α; 60 min after dosage) was 1.501 ± 0.358, the “6-Keto-PGF1α/TXB2, changing in percentage (before dosage = 100%)” value (ET, TXB2, 6-Keto-PGF1α; 60 min after dosage) was 155.44 ± 28.97 % and the 6-Keto-PGF1α/TXB2 (ET, TXB2, 6-Keto-PGF1α; 90 min after dosage) was 1.980 ± 0.924. The “6-Keto-PGF1α/TXB2, changing in percentage (before dosage = 100%)” value (ET, TXB2, 6-Keto-PGF1α; 90 min after dosage) was 203.82 ± 83.25 %, the 6-Keto-PGF1α/TXB2 (ET, TXB2, 6-Keto-PGF1α; 120 min after dosage) was 1.980 ± 0.924 and the “6-Keto-PGF1α/TXB2, changing in percentage (before dosage = 100%)” value (ET, TXB2, 6-Keto-PGF1α; 120 min after dosage) was 203.82 ± 83.25 %. The 6-Keto-PGF1α/TXB2 (ET, TXB2, 6-Keto-PGF1α; 180 min after dosage) was 1.801 ± 0.596, the “6-Keto-PGF1α/TXB2, changing in percentage (before dosage = 100%)” value (ET, TXB2, 6-Keto-PGF1α; 180 min after dosage) was 198.48 ± 87.02 % and the 6-Keto-PGF1α/TXB2 (ET, TXB2, 6-Keto-PGF1α; after hypoxia before dosage) was 143.40 ± 28.64. The “6-Keto-PGF1α/TXB2, changing in percentage” value (ET, TXB2, 6-Keto-PGF1α; after hypoxia before dosage) was 101.14 ± 17.90 % and the 6-Keto-PGF1α/TXB2 (ET, TXB2, 6-Keto-PGF1α; before hypoxia (normal value)) was 106.40 ± 19.12.

`COc1ccc([C@@H]2Sc3ccccc3N(CCN(C)C)C(=O)[C@@H]2OC(C)=O)cc1` [Ditiazen] was tested, and the “CK, changing in percentage (before dosage = 100%)” value (CK, LDH; [7]) was 97.20 ± 12.50 %, the “blood serum CK” value (CK, LDH; [7]) was 660.40 ± 184.88 U/L and the “CK, changing in percentage (before dosage = 100%)” value (CK, LDH; [8]) was 108.84 ± 20.71 %. The “blood serum CK” value (CK, LDH; [8]) was 737.80 ± 159.04 U/L, the “CK, changing in percentage (before dosage = 100%)” value (CK, LDH; [9]) was 115.31 ± 19.97 % and the “blood serum CK” value (CK, LDH; [9]) was 820.80 ± 289.76 U/L. For the same molecule, the “CK, changing in percentage (before dosage = 100%)” value (CK, LDH; [10]) was 314.91 ± 23.35 %, the “blood serum CK” value (CK, LDH; [10]) was 972.40 ± 347.28 U/L and the “CK, changing in percentage (before dosage = 100%)” value (CK, LDH; [11]) was 179.51 ± 10.60 %. The “blood serum CK” value (CK, LDH; [11]) was 1238.60 ± 309.12 U/L, the “CK, changing in percentage” value (CK, LDH; [12]) was 219.80 ± 38.93 % and the “blood serum CK” value (CK, LDH; [12]) was 699.60 ± 211.52 U/L. For the same molecule, the “blood serum CK” value (CK, LDH; Ditiazen 5 mg/kg, before hypoxia (normal)) was 316.20 ± 63.04 U/L.

In the case of `CCN(CC)CC(=O)Nc1c(C)cccc1C` [lidocaine], the total efficacy (dizziness; 3-7 days, 29 DSP, 32 lidocaine patients) was 87.5%, the “Efficacy, cases” value (dizziness; [13]) was 8 and the “Failure, cases” value (dizziness; [13]) was 2. For the same molecule, the “Obvious Efficacy, cases” value (dizziness; [13]) was 12, the “Total efficacy, %” value (dizziness; [13]) was 91% and the “Total efficacy, cases” value (dizziness; [13]) was 20. For the same molecule, the “Efficacy, cases” value (dizziness; Meniere disease) was 2, the “Failure, cases” value (dizziness; Meniere disease) was 2 and the “Obvious Efficacy, cases” value (dizziness; Meniere disease) was 6. For the same molecule, the “Total efficacy, %” value (dizziness; Meniere disease) was 80%, the “Total efficacy, cases” value (dizziness; Meniere disease) was 8 and the “Efficacy, cases” value (dizziness; Total (all dizziness patients)) was 10. For the same molecule, the “Failure, cases” value (dizziness; Total (all dizziness patients)) was 4, the “Obvious Efficacy, cases” value (dizziness; Total (all dizziness patients)) was 18 and the “Total efficacy, %” value (dizziness; Total (all dizziness patients)) was 87.5%. The “Total efficacy, cases” value (dizziness; Total (all dizziness patients)) was 28.
